In US8318716B2, “Carbapenem derivatives” (KBP Biosciences Co., Ltd., priority 2009, dated 2012):
≈ marks a conversion by molar mass, not a printed value. Like-named read-outs stand apart in the source and are kept apart here.

How the values were obtained:
Format in all cases: cell-based
[1] = tested on: methicillin-resistant Staphylococcus aureus (MRSA); test: In vitro antibacterial activity, agar dilution method, MRSA; conditions: clinically isolated strains
Description: (§1) Bacterial strains for test: All the bacterial strains are clinically isolated strains obtained from public sources. (1) Gram-positive bacteria: methicillin-sensitive Staphylococcus aureus (MSSA), methicillin-resistant Staphylococcus aureus (MRSA), methicillin-resistant Staphylococcus epidermidis (MRSE), methicillin-sensitive Staphylococcus epidermidis (MSSE), penicillin-sensitive Streptococcus pneumoniae (PSSP), and penicillin-resistant Streptococcus pneumoniae (PRSP); (2) Gram-negative bacteria: Escherichia coli (products from ESBLs), Klebsiella pneumonia, and Pseudomonas aeruginosa.
(§2) Drugs to be tested: Compounds 1 to 5, prepared as described above; Control drugs:
(§3) Meropenem (Meropenem for injection), Imipenem (Imipenem for injection), commercially available.
(§4) Experimental Method: the agar dilution method, by reference to Methodology of Pharmacological Experiment (X U Shuyun et al, published by the Peoples Medical Publishing House, 1st Edition, August, 1982; 3rd Edition, 5th printing, January 2002, p 1659-1660).

[2] = tested on: methicillin-sensitive Staphylococcus aureus (MSSA); test: In vitro antibacterial activity, agar dilution method, MSSA; conditions: clinically isolated strains
Description: as §1, §2, §3, §4

[3] = tested on: penicillin-sensitive Streptococcus pneumoniae (PSSP); test: In vitro antibacterial activity, agar dilution method, PSSP; conditions: clinically isolated strains
Description: as §1, §2, §3, §4

proteus mirabilis = test: In vitro antibacterial activity, agar dilution method, proteus mirabilis; conditions: clinically isolated strains
Pseudomonas aeruginosa = test: In vitro antibacterial activity, agar dilution method, pseudomonas aeruginosa; conditions: clinically isolated strains
Description: as §1, §2, §3, §4

[4] = tested on: Escherichia coli (products from ESBLs); test: In vitro antibacterial activity, agar dilution method, ESBLs; conditions: clinically isolated strains
Description: as §1, §2, §3, §4

Klebsiella pneumonia = test: In vitro antibacterial activity, agar dilution method, klebsiella pneumonia; conditions: Klebsiella pneumoniae, clinically isolated strains
Description: as §1, §2, §3, §4

[5] = tested on: methicillin-resistant Staphylococcus epidermidis (MRSE); test: In vitro antibacterial activity, agar dilution method, MRSE; conditions: clinically isolated strains
Description: as §1, §2, §3, §4

[6] = tested on: methicillin-sensitive Staphylococcus epidermidis (MSSE); test: In vitro antibacterial activity, agar dilution method, MSSE
Description: as §1, §2, §3, §4

[7] = tested on: penicillin-resistant Streptococcus pneumoniae (PRSP); test: In vitro antibacterial activity, agar dilution method, PRSP; conditions: clinically isolated strains
Description: as §1, §2, §3, §4

[8] = MSSE, clinically isolated strains, agar dilution, read-out: MIC90

| Structure (SMILES) | MIC90 [1] [µg/mL] | MIC90 [2] [µg/mL] | MIC90 [3] [µg/mL] | MIC90 (proteus mirabilis) [µg/mL] | MIC90 (Pseudomonas aeruginosa) [µg/mL] | MIC90 [4] [µg/mL] | MIC90 (Klebsiella pneumonia) [µg/mL] | MIC90 [5] [µg/mL] | MIC90 [6, 8] [µg/mL] | MIC90 [7] [µg/mL] | MIC90 [6] [µg/mL] |
| --- | --- | --- | --- | --- | --- | --- | --- | --- | --- | --- | --- |
| COc1ccc(CNC(=O)[C@@H]2C[C@H](SC3=C(C(=O)O)N4C(=O)[C@H]([C@@H](C)O)[C@H]4[C@H]3C)CN2)cc1 [Compound 1, (4R,5S,6S)-6-((R)-1-hydroxyethyl)-3-((3S,5S)-5-(4-methoxybenzylcarbamoyl)pyrrolidin-3-ylthio)-4-methyl-7-oxo-1-azabicyclo[3.2.0]hept-2-ene-2-carboxylic acid] | 16 (≈ 33.6 µM) | 0.063 (≈ 0.132 µM) | 0.016 (≈ 0.0336 µM) | 0.125 (≈ 0.263 µM) | 4 (≈ 8.41 µM) | 0.031 (≈ 0.0652 µM) | 0.031 (≈ 0.0652 µM) | 32 (≈ 67.3 µM) | 0.031 (≈ 0.0652 µM) | 0.25 (≈ 0.526 µM) | – |
| C[C@@H](O)[C@H]1C(=O)N2C(C(=O)O)=C(SCCN=CN)C[C@H]12 [Imipenem, reference compound] | 32 (≈ 107 µM) | 0.063 (≈ 0.21 µM) | 0.016 (≈ 0.0534 µM) | 8 (≈ 26.7 µM) | 8 (≈ 26.7 µM) | 0.25 (≈ 0.835 µM) | 0.5 (≈ 1.67 µM) | 64 (≈ 214 µM) | 0.031 (≈ 0.104 µM) | 0.5 (≈ 1.67 µM) | – |
| C[C@@H](O)[C@H]1C(=O)N2C(C(=O)O)=C(S[C@@H]3CN[C@H](C(=O)N(C)C)C3)[C@H](C)[C@H]12 [Meropenem, reference compound] | 64 (≈ 167 µM) | 0.25 (≈ 0.652 µM) | 0.031 (≈ 0.0808 µM) | 0.25 (≈ 0.652 µM) | 4 (≈ 10.4 µM) | 0.031 (≈ 0.0808 µM) | 0.063 (≈ 0.164 µM) | 64 (≈ 167 µM) | – | 1 (≈ 2.61 µM) | 0.125 (≈ 0.326 µM) |

Now from value to molecule, other results behind:

| MIC90 [1] [µg/mL] | MIC90 [2] [µg/mL] | MIC90 [3] [µg/mL] | MIC90 (proteus mirabilis) [µg/mL] | MIC90 (Pseudomonas aeruginosa) [µg/mL] | MIC90 [4] [µg/mL] | MIC90 (Klebsiella pneumonia) [µg/mL] | MIC90 [5] [µg/mL] | MIC90 [6, 8] [µg/mL] | MIC90 [7] [µg/mL] | Structure (SMILES) | MIC90 [6] [µg/mL] |
| --- | --- | --- | --- | --- | --- | --- | --- | --- | --- | --- | --- |
| 16 (≈ 30.5 µM) | – | 0.016 (≈ 0.0305 µM) | 0.125 (≈ 0.238 µM) | 4 (≈ 7.62 µM) | 0.063 (≈ 0.12 µM) | 0.063 (≈ 0.12 µM) | 32 (≈ 61 µM) | 0.063 (≈ 0.12 µM) | 0.125 (≈ 0.238 µM) | C[C@@H](O)[C@H]1C(=O)N2C(C(=O)O)=C(S[C@@H]3CN[C@H](C(=O)NCc4ccc(S(N)(=O)=O)cc4)C3)[C@H](C)[C@H]12 [Compound 2] | – |
| 32 (≈ 61.8 µM) | 0.063 (≈ 0.122 µM) | 0.031 (≈ 0.0599 µM) | 0.25 (≈ 0.483 µM) | 2 (≈ 3.86 µM) | 0.031 (≈ 0.0599 µM) | 0.031 (≈ 0.0599 µM) | 32 (≈ 61.8 µM) | 0.031 (≈ 0.0599 µM) | 0.25 (≈ 0.483 µM) | C[C@@H](O)[C@H]1C(=O)N2C(C(=O)O)=C(S[C@@H]3CN[C@H](C(=O)NCc4cccc(CCC(=O)O)c4)C3)[C@H](C)[C@H]12 [Compound 3] | – |
| 16 (≈ 30.2 µM) | 0.031 (≈ 0.0585 µM) | 0.016 (≈ 0.0302 µM) | 0.125 (≈ 0.236 µM) | 4 (≈ 7.55 µM) | 0.016 (≈ 0.0302 µM) | 0.031 (≈ 0.0585 µM) | 16 (≈ 30.2 µM) | 0.031 (≈ 0.0585 µM) | 0.125 (≈ 0.236 µM) | C[C@@H](O)[C@H]1C(=O)N2C(C(=O)O)=C(S[C@@H]3CN[C@H](C(=O)NCc4ccc(OC(F)(F)F)cc4)C3)[C@H](C)[C@H]12 [Compound 4, (4R,5S,6S)-6-((R)-1-hydroxyethyl)-4-methyl-7-oxo-3-((3S,5S)-5-(4-(trifluoromethoxy)benzylcarbamoyl)pyrrolidin-3-ylthio)-1-azabicyclo[3.2.0]hept-2-ene-2-carboxylic acid] | – |
| 16 (≈ 31.3 µM) | 0.063 (≈ 0.123 µM) | 0.016 (≈ 0.0313 µM) | 0.125 (≈ 0.244 µM) | 2 (≈ 3.91 µM) | 0.016 (≈ 0.0313 µM) | 0.063 (≈ 0.123 µM) | 16 (≈ 31.3 µM) | 0.063 (≈ 0.123 µM) | 0.25 (≈ 0.489 µM) | C[C@@H](O)[C@H]1C(=O)N2C(C(=O)O)=C(S[C@@H]3CN[C@H](C(=O)NCc4ccc(OC(F)F)cc4)C3)[C@H](C)[C@H]12 [Compound 5] | – |
